Measured values: patent US20160030522A1, “COMBINATION THERAPY TO IMPROVE SOFT TISSUE HEALING, FAT GRAFT HEALING, ENDOCHONDRAL BONE HEALING AND OSTEOINTEGRATION” (priority 2013, published 2016)

Test system: trephine defect
Assay: Bony ingrowth / regeneration in the trephine defect after systemic treatment of mice
Assay type: in vivo
Conditions: systemic administration
Protocol: Mice and Injury Model: All experiments are performed in accordance with the IACUC guidelines. C57BL/6J wild-type mice aged 8-12 weeks are purchased from Jackson Laboratories (Bar Harbor, Me.). Mice are randomized to receive one of #1) no injury; #2) an implant stud having a porous polyethylene-polypropylene coating placed in a defect in the distal femur. […] Treatment Groups: Mice in each of the 4 experimental groups are randomly assigned to receive once daily one of: #1) saline i.p. injection; #2) AMD3100 (10 mg/kg, i.p.; PLERIXAFOR®; Genzyme Corp., Cambridge, Mass.) injection; #3) Teriparatide (0.285 mcg/kg, i.p.; FORTEO®; Eli Lilly and Company, Indianapolis, Ind.); or #4) AMD3100 (10 mg/kg, i.p.; PLERIXAFOR®; Genzyme Corp., Cambridge, Mass.); and teriparatide (0.285 mcg/kg, i.p.; FORTEO®; Eli Lilly and Company, Indianapolis, Ind.). […] BM is flushed from mouse long bones using PBS/10% FBS/5% EDTA, as previously described. Mononuclear cells (MNCs) from the peripheral blood and BM are isolated by density gradient centrifugation using Histopaque 1083 (Sigma-Aldrich; St. Louis, Mo.). […] Adobe Photoshop CS3 is used to segment and quantify positive CD31 staining. The vascular density of mouse wounds is determined by quantifying the total area of CD31+ staining (red) per megapixel (1×106 pixels square area) of wound stained.

Row | Structure (SMILES) | bony ingrowth / bony regeneration
1 | c1cc(CN2CCCNCCNCCCNCC2)ccc1CN1CCCNCCNCCCNCC1 [AMD3100] | 59.7%
2 | CC[C@H](C)[C@H](NC(=O)[C@H](CCC(=O)O)NC(=O)[C@H](CO)NC(=O)[C@@H](NC(=O)[C@@H](N)CO)C(C)C)C(=O)N[C@@H](CCC(N)=O)C(=O)N[C@@H](CC(C)C)C(=O)N[C@@H](CCSC)C(=O)N[C@@H](Cc1cnc[nH]1)C(=O)N[C@@H](CC(N)=O)C(=O)N[C@@H](CC(C)C)C(=O)NCC(=O)N[C@@H](CCCCN)C(=O)N[C@@H](Cc1cnc[nH]1)C(=O)N[C@@H](CC(C)C)C(=O)N[C@@H](CC(N)=O)C(=O)N[C@@H](CO)C(=O)N[C@@H](CCSC)C(=O)N[C@@H](CCC(=O)O)C(=O)N[C@@H](CCCN=C(N)N)C(=O)N[C@H](C(=O)N[C@@H](CCC(=O)O)C(=O)N[C@@H](Cc1c[nH]c2ccccc12)C(=O)N[C@@H](CC(C)C)C(=O)N[C@@H](CCCN=C(N)N)C(=O)N[C@@H](CCCCN)C(=O)N[C@@H](CCCCN)C(=O)N[C@@H](CC(C)C)C(=O)N[C@@H](CCC(N)=O)C(=O)N[C@@H](CC(=O)O)C(=O)N[C@H](C(=O)N[C@@H](Cc1cnc[nH]1)C(=O)N[C@@H](CC(N)=O)C(=O)N[C@@H](Cc1ccccc1)C(=O)O)C(C)C)C(C)C [PTH] | 56%
